The source of these data is article PMC6697720, “Saturation of acyl chains converts cardiolipin from an antagonist to an activator of Toll-like receptor-4” (Cellular and Molecular Life Sciences: CMLS, 2019).

The test system of one test is primary BMDM cells. The test can be described thus: TNF-α and IP-10 secretion in primary BMDMs incubated with CL or LPS alone. The class given is cell-based, murine. As to conditions: overnight. As to the method: Bone marrow was isolated from femurs and tibias of 10-week-old C57BL/6 mice killed by cervical dislocation. Briefly, bone marrow was flushed out with a syringe filled with DMEM, pelleted down, and resuspended and homogenized in complete medium (DMEM supplemented with 10% heat-inactivated FBS from South America, 2 mM glutamine, 50 U/mL penicillin, 50 μg/mL streptomycin, and 20% of supernatant taken from L929 cells). The cell suspension generated thereafter was then maintained in petri dishes for 7 days.
Primary BMDM cells were detached from petri dishes and seeded the day before the experiment in 96-well plates at 0.75 × 10^6 cells/mL (200 μL/well).
(§1) After stimulation, supernatants were collected, centrifuged, and assayed for cytokine secretion, while cells were assayed for viability.
TNF-α and IP-10 were quantified in cell supernatants using DuoSet ELISA kits from R&D Systems and human IL-1β using Instant ELISA™ Kit from Invitrogen, according to the manufacturer’s instructions. Absorbance was read with a BioTek Synergy HT Microplate Readers. […]
Primary BMDM cells were incubated overnight with medium (ctrl) or C14:0 CL at the indicated concentrations. TNF-α and IP-10 were measured by ELISA in collected supernatants. […]

A further test has as its system primary human monocytes. The test can be described thus: TNF-α and IL-1β secretion in primary human monocytes incubated with CL. The test is classed as cell-based. As to conditions: CL alone, overnight. As to the method:
Human monocytes were isolated from PBMCs by immunomagnetic negative selection using the EasySep™ human monocyte enrichment kit without CD16 depletion (STEMCELL™ Technologies).
100.000 of freshly isolated PBMCs or monocytes were mixed with stimulants to a final volume of 160 μL/well in round bottom 96-well plates.
as §1
TNF-α and IP-10 were quantified in cell supernatants using DuoSet ELISA kits from R&D Systems and human IL-1β using Instant ELISA™ Kit from Invitrogen, according to the manufacturer’s instructions. Absorbance was read with a BioTek Synergy HT Microplate Readers.
Fig. 3 Saturated but not unsaturated CLs have pro-inflammatory properties. a RAW-Blue™ cells were incubated overnight with the indicated amount of CL or LPS, supernatants were collected, and NF-κB activation quantified via Quanti-Blue™ test and reported here as fold induction as compared to control. Unpaired t test: differences with respect to the control (Ctrl) are not significant if p > 0.05 (no symbol); *p ≤ 0.0007. b Immortalized BMDM cells were incubated overnight with the indicated amount of CL or LPS; supernatants were collected and TNF-α quantified via ELISA assay. c, d Primary human monocytes were incubated overnight with the indicated amount of CL or LPS with or without the NLRP3 inhibitor MCC950, supernatants were collected, and TNF-α and IL-1β were quantified via ELISA assay. Graphs are representative of experiments from six different donors. Unpaired t test: differences with respect to the control (Ctrl) are not significant if p > 0.05 (no symbol); *p ≤ 0.021. Each bar represents the mean + standard deviation of three biological replicates (n = 3). Graphs are representative of at least three independent experiments
C18:0 and C18:2 CLs’ pro-inflammatory activities were validated in primary monocytes isolated from human donor blood. C18:0 CL but not C18:2 CL reproduced LPS activity inducing TNF-α and IL-1β secretion in a dose-dependent manner (Fig. 3c, d).

`CCCCCCCCCCCCCC(=O)OC[C@H](COP(=O)(O)OCC(O)COP(=O)(O)OC[C@@H](COC(=O)CCCCCCCCCCCCC)OC(=O)CCCCCCCCCCCCC)OC(=O)CCCCCCCCCCCCC` (stereo partly shown) [C14:0 CL]: in the test on primary BMDM cells, the IP-10 secretion entry is recorded as “induces” and the TNF-α secretion entry is listed as “induces”.
`CCCCCCCCCCCCCCCCCC(=O)OC[C@H](COP(=O)(O)OCC(O)COP(=O)(O)OC[C@@H](COC(=O)CCCCCCCCCCCCCCCCC)OC(=O)CCCCCCCCCCCCCCCCC)OC(=O)CCCCCCCCCCCCCCCCC` (stereo partly shown) [C18:0 CL]: in the test on primary human monocytes, the IL-1β secretion entry is “inducing” and the TNF-α secretion entry is listed as “inducing”.
